What was measured:
[1] = Solubility of the compound at pH 7; type: physicochemical; settings: buffer
[2] = Solubility of the compound at pH 2; type: physicochemical; settings: buffer

O=C(Cn1c(=O)[nH]c2ncc(-c3cccc(C(F)(F)F)c3)cc21)NC1CC1
solubility [1]: < 4 µM
solubility [2]: < 4 µM

Reference: ChEMBL document CHEMBL4339196, “1H-Pyrrolo[3,2-b]pyridine GluN2B-Selective Negative Allosteric Modulators” (ACS Med Chem Lett, 2019)
